Reference: patent US20200277268A1, “PENTAFLUOROPHENYL SULFONAMIDE COMPOUNDS, COMPOSITIONS AND USES THEREOF” (DALRIADA THERAPEUTICS INC., priority 2017, published 2020)

Experiments:
Type in all cases: cell-based
[1] = tested on: healthy human lung cells (MRC9); assay: CellTiter-Blue cell viability, MRC9; conditions: non-cancerous, 72 hours
Protocol: (§1) The anti-cancer efficacy of exemplary compounds of the application were assessed in vitro against different cancer cell lines. Cell viability was examined following treatment at various concentrations of inhibitor (0.097656-50 μM) using a CellTiter-Blue® cell viability assay. 1×10^4 cells/well were plated in 96-well assay plates in culture medium. All cells were grown in DMEM, IMDM and RPMI-1640 supplemented with 10% fetal bovine serum (FBS). In some instances, FBS was removed for periods ranging from 16-24 hours, and re-introduced with test compound addition. After 24 hrs, test compounds and vehicle controls were added to appropriate wells such that the final volume was 100 μl in each well. The cells were cultured for the desired test exposure period (72 hours) at 37° C. and 5% CO2. The assay plates were removed from 3° C. incubator and 20 μl/well of CellTiter-Blue® Reagent was added. The plates were incubated using standard cell culture conditions for 1-4 hours. Afterwards, the plates were shaken for 10 seconds and florescence was recorded at 560/590 nm using a Cytation 3 spectrophotometer. IC50 values were determined using non-linear regression analysis with GraphPad Prism 6.0 (GraphPad Software Inc.).

MOLM13 = assay: CellTiter-Blue cell viability, MOLM13; conditions: Homo sapiens, MOLM-13; AML cell line, 72 hours
Protocol: as §1

MV4-11 = assay: CellTiter-Blue cell viability, MV4-11; conditions: for IC50: Homo sapiens, MV4-11, AML cell line, 72 hours
Protocol: as §1

[2] = tested on: primary human fibroblast cells (PHF); assay: CellTiter-Blue cell viability, PHF; conditions: non-cancerous, 72 hours
Protocol: as §1

Question: Which results are given for O=S(=O)(NCc1ccc(F)cc1)c1c(F)c(F)c(F)c(F)c1F [Comparative Example 4, 2,3,4,5,6-pentafluoro-N-(4-fluorobenzyl)benzenesulfonamide, reference compound]?
Answer: IC50 [1]: 16.8 µM; IC50 (MOLM13): 4 µM; IC50 (MV4-11): 3.1 µM; potency relative to parent I-1 analogue (MV4-11; cell viability, Table 1): less potent

Question: With O=S(=O)(NC1CC1)c1c(F)c(F)c(F)c(F)c1F [Comparative Example 6, N-cyclopropyl-2,3,4,5,6-pentafluorobenzenesulfonamide, reference compound] as the compound, how does the IC50 [1] read?
Answer: 19.1 µM

Question: And the IC50 (MOLM13)?
Answer: 7 µM

Question: And the IC50 (MV4-11)?
Answer: 6.4 µM

Question: What does the source list for O=S(=O)(c1c(F)c(F)c(F)c(F)c1F)N(Cc1ccc(F)cc1)CC1CC1 [Compound I-2, N-(cyclopropylmethyl)-2,3,4,5,6-pentafluoro-N-(4-fluorobenzyl)benzenesulfonamide]?
Answer: IC50 [1]: 7.7 µM; IC50 (MOLM13): 1.6 µM; IC50 (MV4-11): 0.85 µM; IC50 [2]: 2.9 µM

Question: For O=S(=O)(c1c(F)c(F)c(F)c(F)c1F)N(Cc1ccccc1)Cc1ccc(F)cc1 [Compound I-3], which IC50 [1] is on record?
Answer: 14.4 µM

Question: What about the IC50 (MOLM13) of the same compound?
Answer: 9.3 µM

Question: And the IC50 (MV4-11)?
Answer: 0.59 µM

Question: With CC(=O)N(Cc1ccc(F)cc1)S(=O)(=O)c1c(F)c(F)c(F)c(F)c1F [Compound I-4, N-(4-fluorobenzyl)-N-((perfluorophenyl)sulfonyl)acetamide] as the compound, how does the IC50 [1] read?
Answer: 25 µM

Question: What about the IC50 (MOLM13) of the same compound?
Answer: 5.1 µM

Question: And the IC50 (MV4-11)?
Answer: 2.09 µM

Question: Which IC50 [1] does the source give for O=S(=O)(c1c(F)c(F)c(F)c(F)c1F)N(Cc1ccccc1)C1CC1 [Compound I-6, N-benzyl-N-cyclopropyl-2,3,4,5,6-pentafluorobenzenesulfonamide] here?
Answer: 17.5 µM

Question: And the IC50 (MOLM13)?
Answer: 1.3 µM

Question: And the IC50 (MV4-11)?
Answer: 1.3 µM

Question: O=S(=O)(c1c(F)c(F)c(F)c(F)c1F)N(Cc1cccc(F)c1)C1CC1 [Compound I-11, N-cyclopropyl-2,3,4,5,6-pentafluoro-N-(3-fluorobenzyl)benzenesulfonamide] was tested. Which IC50 [1] did it give?
Answer: 9 µM

Question: And the IC50 (MOLM13)?
Answer: 3.37 µM

Question: What about the IC50 (MV4-11) of the same compound?
Answer: 1.7 µM

Question: Which IC50 [1] does the source give for O=S(=O)(c1c(F)c(F)c(F)c(F)c1F)N(Cc1ccc(F)nc1)C1CC1 [Compound I-12, N-cyclopropyl-2,3,4,5,6-pentafluoro-N-((6-fluoropyridin-3-yl)methyl)benzenesulfonamide] here?
Answer: 18 µM

Question: What about the IC50 (MOLM13) of the same compound?
Answer: 3.07 µM

Question: What about the IC50 (MV4-11) of the same compound?
Answer: 1.35 µM

Question: What about the IC50 [2] of the same compound?
Answer: 5 µM

Question: What does the source list for O=S(=O)(c1c(F)c(F)c(F)c(F)c1F)N(Cc1ccc(F)cn1)C1CC1 [Compound I-13, N-cyclopropyl-2,3,4,5,6-pentafluoro-N-((5-fluoropyridin-2-yl)methyl)benzenesulfonamide]?
Answer: IC50 [1]: 25 µM; IC50 (MOLM13): 1.1 µM; IC50 (MV4-11): 1.7 µM; IC50 [2]: 5.5 µM

Question: For CC(C)N(Cc1ccc(F)cc1)S(=O)(=O)c1c(F)c(F)c(F)c(F)c1F [Compound I-16, 2,3,4,5,6-pentafluoro-N-(4-fluorobenzyl)-N-isopropylbenzenesulfonamide], which IC50 [1] is on record?
Answer: 25 µM

Question: What about the IC50 (MOLM13) of the same compound?
Answer: 3.5 µM

Question: What about the IC50 (MV4-11) of the same compound?
Answer: 1.2 µM

Question: And the IC50 [2]?
Answer: 7.2 µM

Question: Which IC50 [1] does the source give for COc1ccc(CN(C2CC2)S(=O)(=O)c2c(F)c(F)c(F)c(F)c2F)cc1F [Compound I-17, N-cyclopropyl-2,3,4,5,6-pentafluoro-N-(3-fluoro-4-methoxybenzyl)benzenesulfonamide] here?
Answer: 16.2 µM

Question: What about the IC50 (MOLM13) of the same compound?
Answer: 0.63 µM

Question: What about the IC50 (MV4-11) of the same compound?
Answer: 0.79 µM

Question: What does the source list for NC(=O)c1ccc(CN(C2CC2)S(=O)(=O)c2c(F)c(F)c(F)c(F)c2F)cc1 [Compound I-20, 4-(((N-cyclopropyl-2,3,4,5,6-pentafluorophenyl)sulfonamido)methyl)benzamide]?
Answer: IC50 (MOLM13): 1.7 µM; IC50 (MV4-11): 1.05 µM; IC50 [2]: 4.9 µM

Question: Which results are given for N#Cc1ccc(CN(C2CC2)S(=O)(=O)c2c(F)c(F)c(F)c(F)c2F)cc1 [Compound I-23, N-(4-cyanobenzyl)-N-cyclopropyl-2,3,4,5,6-pentafluorobenzenesulfonamide]?
Answer: IC50 [1]: 7.8 µM; IC50 (MOLM13): 2.58 µM; IC50 (MV4-11): 0.99 µM; IC50 [2]: 5.5 µM

Question: What does the source list for O=S(=O)(c1c(F)c(F)c(F)c(F)c1F)N(Cc1ccc(C(F)(F)F)cc1)C1CC1 [Compound I-25, N-cyclopropyl-2,3,4,5,6-pentafluoro-N-(4-(trifluoromethyl)benzyl)benzenesulfonamide]?
Answer: IC50 (MOLM13): 1.05 µM; IC50 (MV4-11): 0.95 µM; IC50 [2]: 3 µM

Question: With O=C(O)c1ccc(CN(C2CC2)S(=O)(=O)c2c(F)c(F)c(F)c(F)c2F)cc1 [Compound I-26, 4-(((N-cyclopropyl-2,3,4,5,6-pentafluorophenyl)sulfonamido)methyl)benzoic acid] as the compound, how does the IC50 (MOLM13) read?
Answer: 1.9 µM

Question: What about the IC50 (MV4-11) of the same compound?
Answer: 1.2 µM

Question: And the IC50 [2]?
Answer: 6.5 µM

Question: With COc1cc(CN(C2CC2)S(=O)(=O)c2c(F)c(F)c(F)c(F)c2F)cc(OC)c1O [Compound I-29, N-cyclopropyl-2,3,4,5,6-pentafluoro-N-(4-hydroxy-3,5-dimethoxybenzyl)benzenesulfonamide] as the compound, how does the IC50 [1] read?
Answer: 9.7 µM

Question: And the IC50 (MOLM13)?
Answer: 3.96 µM

Question: And the IC50 (MV4-11)?
Answer: 1.94 µM

Question: Which results are given for O=S(=O)(c1c(F)c(F)c(F)c(F)c1F)N(CC#Cc1ccccc1)C1CC1 [Compound I-31, N-cyclopropyl-2,3,4,5,6-pentafluoro-N-(3-phenylprop-2-yn-1-yl)benzenesulfonamide]?
Answer: IC50 [1]: 15.5 µM; IC50 (MOLM13): 5.2 µM; IC50 (MV4-11): 1.53 µM

Question: O=S(=O)(c1c(F)c(F)c(F)c(F)c1F)N(Cc1ccoc1)C1CC1 [Compound I-33] was tested. Which IC50 [1] did it give?
Answer: 22.1 µM

Question: And the IC50 (MOLM13)?
Answer: 3.86 µM

Question: What about the IC50 (MV4-11) of the same compound?
Answer: 3.55 µM

Question: What does the source list for O=S(=O)(c1c(F)c(F)c(F)c(F)c1F)N(Cc1cccc(N2CCOCC2)c1)C1CC1 [Compound I-34, N-cyclopropyl-2,3,4,5,6-pentafluoro-N-(3-morpholinobenzyl)benzenesulfonamide]?
Answer: IC50 [1]: 14.1 µM; IC50 (MOLM13): 7.95 µM; IC50 (MV4-11): 0.96 µM

Question: For O=S(=O)(c1c(F)c(F)c(F)c(F)c1F)N(Cc1ccc(F)cc1F)C1CC1 [Compound I-35, N-cyclopropyl-N-(2,4-difluorobenzyl)-2,3,4,5,6-pentafluorobenzenesulfonamide], which IC50 [1] is on record?
Answer: 13.5 µM

Question: And the IC50 (MOLM13)?
Answer: 3.96 µM

Question: And the IC50 (MV4-11)?
Answer: 1.7 µM

Question: How did the IC50 [1] turn out when O=S(=O)(c1c(F)c(F)c(F)c(F)c1F)N(Cc1c(F)cc(F)cc1F)C1CC1 [Compound I-36, N-cyclopropyl-2,3,4,5,6-pentafluoro-N-(2,4,6-trifluorobenzyl)benzenesulfonamide] was run?
Answer: 26 µM

Question: What about the IC50 (MOLM13) of the same compound?
Answer: 6.81 µM

Question: What about the IC50 (MV4-11) of the same compound?
Answer: 1.52 µM

Question: What about the IC50 [2] of the same compound?
Answer: 8.1 µM

Question: With Nc1ccc(-c2ccccc2CN(C2CC2)S(=O)(=O)c2c(F)c(F)c(F)c(F)c2F)cc1 [Compound I-38, N-((4′-amino-[1,1′-biphenyl]-2-yl)methyl)-N-cyclopropyl-2,3,4,5,6-pentafluorobenzenesulfonamide] as the compound, how does the IC50 [1] read?
Answer: 13.1 µM

Question: What about the IC50 (MOLM13) of the same compound?
Answer: 8.51 µM

Question: And the IC50 (MV4-11)?
Answer: 1.43 µM

Question: What does the source list for Nc1cccc(-c2ccc(CN(C3CC3)S(=O)(=O)c3c(F)c(F)c(F)c(F)c3F)cc2)c1 [Compound I-39, N-((3′-amino-[1,1′-biphenyl]-4-yl)methyl)-N-cyclopropyl-2,3,4,5,6-pentafluorobenzenesulfonamide]?
Answer: IC50 [1]: 15.7 µM; IC50 (MOLM13): 14.9 µM; IC50 (MV4-11): 1.52 µM

Question: Which results are given for O=S(=O)(c1c(F)c(F)c(F)c(F)c1F)N(Cc1ccccc1F)C1CCC1 [Compound I-45, N-cyclobutyl-2,3,4,5,6-pentafluoro-N-(2-fluorobenzyl)benzenesulfonamide]?
Answer: IC50 [1]: 14.2 µM; IC50 (MOLM13): 3.9 µM; IC50 (MV4-11): 2.27 µM

Question: Which results are given for O=S(=O)(c1c(F)c(F)c(F)c(F)c1F)N(Cc1c(F)cc(F)cc1F)C1CCC1 [Compound I-47, N-cyclobutyl-2,3,4,5,6-pentafluoro-N-(2,4,6-trifluorobenzyl)benzenesulfonamide]?
Answer: IC50 [1]: 15.7 µM; IC50 (MOLM13): 8.4 µM; IC50 (MV4-11): 1.14 µM; IC50 [2]: 3.7 µM

Question: Which results are given for CC(C)N(Cc1ccccc1F)S(=O)(=O)c1c(F)c(F)c(F)c(F)c1F [Compound I-48]?
Answer: IC50 [1]: 15 µM; IC50 (MOLM13): 4.11 µM; IC50 (MV4-11): 1.19 µM; IC50 [2]: 3 µM

Question: For CC(C)N(Cc1ccc(F)cc1F)S(=O)(=O)c1c(F)c(F)c(F)c(F)c1F [Compound I-49, N-(2,4-difluorobenzyl)-2,3,4,5,6-pentafluoro-N-isopropylbenzenesulfonamide], which IC50 [1] is on record?
Answer: 16.7 µM

Question: And the IC50 (MOLM13)?
Answer: 4.2 µM

Question: What about the IC50 (MV4-11) of the same compound?
Answer: 1.01 µM

Question: What about the IC50 [2] of the same compound?
Answer: 4.5 µM

Question: With O=S(=O)(c1c(F)c(F)c(F)c(F)c1F)N(Cc1ccncc1)Cc1ccc(F)cc1 [Compound I-52] as the compound, how does the IC50 (MOLM13) read?
Answer: 3.5 µM

Question: And the IC50 (MV4-11)?
Answer: 4.1 µM

Question: With O=S(=O)(c1c(F)c(F)c(F)c(F)c1F)N(Cc1ccc(F)cc1)c1ccccc1 [Compound I-53, 2,3,4,5,6-pentafluoro-N-(4-fluorobenzyl)-N-phenylbenzenesulfonamide] as the compound, how does the IC50 (MOLM13) read?
Answer: 1.5 µM

Question: And the IC50 (MV4-11)?
Answer: 1.4 µM

Question: How did the IC50 (MOLM13) turn out when CC(C)(C)C(=O)N(Cc1ccc(F)cc1)S(=O)(=O)c1c(F)c(F)c(F)c(F)c1F [Compound I-54, N-(4-fluorobenzyl)-N-((perfluorophenyl)sulfonyl)pivalamide] was run?
Answer: 1.7 µM

Question: What about the IC50 (MV4-11) of the same compound?
Answer: 0.7 µM

Question: And the IC50 [2]?
Answer: 3 µM

Question: CN(Cc1ccc(F)cc1)S(=O)(=O)c1c(F)c(F)c(F)c(F)c1F [Compound I-58, 2,3,4,5,6-pentafluoro-N-(4-fluorobenzyl)-N-methylbenzenesulfonamide] was tested. Which IC50 (MOLM13) did it give?
Answer: 3.1 µM

Question: And the IC50 (MV4-11)?
Answer: 0.44 µM
